Data set [1] in a line: Compound 1 pH-solubility at 22° C. The class given is physicochemical. The note with it: thermodynamic from solid. An excerpt:
The solubility of Compound 1 at various pH's was investigated.

Data set [2] can be described thus: Dispersion of Compound 1⋅HCl in stirred water with or without poloxamer 188. The class given is physicochemical. To be noted: 0.25 g in 50 mL water, in the presence of poloxamer 188 (0.25 g) vs without. The protocol:
Compound 1⋅HCl (0.25 g) was added to each of two stirred beakers containing water (50 mL), one also containing poloxamer 188 (0.25 g). The dispersion of Compound 1 throughout the beaker was higher in the presence of Poloxamer 188.

Data set [3] is classed as physicochemical. On the procedure:
Binary mixtures of Compound 1 HCl salt (prepared according to Example 2.1) and excipient were stored at 40° C. and 75% RH for 4 weeks and analysed at weekly intervals for appearance, moisture content (KF) and HPLC purity of Compound 1, with the excipients studied being microcrystalline cellulose, silicified microcrystalline cellulose, lactose, crospovidone, croscarmellose sodium, sodium starch glycolate, magnesium stearate, sodium stearyl fumarate, red iron oxide, blue #2, eudragit, polyvinylpyrrolidone, HPMC-AS, anhydrous citric acid and HPMC.

Each structure is given as a SMILES string. Like-named read-outs stand apart in the source and are kept apart here.

What is called solubility is the dissolved amount per volume that the medium holds.

On to `CC(C)(C)OC(=O)N1CCN(Cc2ccn(Cc3ccc(Cl)cc3)c(=O)c2O)CC1.Cl` [Compound 1 HCl salt], for which the solubility was 600 µg/mL in data set [1] (citrate buffer, aqueous buffer, pH 3 (Citrate 25 mM, l = 0.1), pH 3.0, 22° C.); 1810 µg/mL in data set [1] (simulated gastric fluid, 0.1M HCl, pH 1.3, 22° C.); 550 µg/mL in data set [1] (Water (1 mg/ml load), pH 3.1, 22° C.); 2070 µg/mL in data set [1] (Water (5 mg/ml load), pH 2.2, 22° C.). Moreover, the “Dispersion of Compound 1 throughout the beaker” value in data set [2] is recorded as “higher”. In data set [3] (40° C. and 75% RH for 4 weeks), the Stability on storage entry is listed as “stable”. In addition, in data set [3] (binary mixture with citric acid, 40° C. and 75% RH, after 1 week), the “Appearance of binary mixture” value is on record as “liquefied”. In data set [3] (binary mixture with citric acid, 40° C. and 75% RH, after 4 weeks), the “API purity by HPLC” value was 34.1%. Also, the Total impurities in data set [3] (binary mixture with microcrystalline cellulose, 40° C. and 75% RH, after 4 weeks) is 0.51%; in data set [3] (binary mixture with silicified microcrystalline cellulose, 40° C. and 75% RH, after 4 weeks), 0.69%.

These data come from patent publication US20220175766A1, “COMPOSITIONS AND METHODS OF TREATMENT” (GB004, Inc., priority 2019, published 2022).
